Measurements as given in patent US20020137929A1, “1 - (3-heterocyclylphenyl) isothiourea, -isourea, -guanidine and -amidine herbicidal agents” (Intellectual Property Department, BASF Aktiengesellschaft, priority 1998, published 2002).

Tests used:
[1] = tested on: SAGPY (Arrowhead (Pygmaea)); experiment: Postemergence weed control under flooded paddy conditions; type: in vivo, Sagittaria pygmaea; details: postemergence weeds
How it was run: (§1)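 Containers holding 3–5 cm weeds and rice at 1.5–2.5 leaves are flooded to 1.5–3 cm above soil. Compound in 50/50 v/v aqueous/acetone is then added directly to the water, about 0.0313–0.500 kg/ha. Plants are kept in the greenhouse and rated 0–9 visually at 3–4 weeks.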

CYPIR (Rice Flatsedge) = experiment: Preemergence weed control under flooded paddy conditions; type: in vivo, Cyperus iria; details: rated 3-4 weeks after treatment
How it was run: (§2)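 Flooded-pot preemergence screen with silt loam and seeds in the upper 0.5 cm. Dose about 0.0313 to 0.500 kg/ha, delivered into flood water; visual 0-9 score after 3 to 4 weeks.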

ZEAMX (Corn, Field) = experiment: Preemergence herbicidal evaluation; type: in vivo, Zea mays; details: rated 4-5 weeks after treatment
How it was run: (§3)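 Greenhouse preemergence test: seed-soil mix sown on ~1 inch soil; aqueous acetone spray at equivalent of ~0.0156–0.500 kg/ha; greenhouse-held and watered; scored 0–9 visually at 4–5 weeks.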

[2] = tested on: ECHORC (Watergrass (Calif.)); experiment: Postemergence weed control under flooded paddy conditions; type: in vivo, Echinochloa oryzoides; details: postemergence weeds
How it was run: as §1

[3] = tested on: IPOHE (Morningglory, Ivyleaf); experiment: Postemergence herbicidal evaluation; type: in vivo, Ipomoea hederacea; details: for IPOHE herbicidal rating: postemergence
How it was run: (§4)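 Visual 0–9 rating versus control (stand, vigor, malformation, size, chlorosis, overall appearance), taken four to five weeks post-spray. Two-week-old seedlings received roughly 0.0156–0.500 kg/ha active in acetone/water (50/50) with 0.5% TWEEN 20 via nozzle at 40 psi.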

[4] = tested on: TRZAWR (Wheat, Winter, cv Riband); experiment: Postemergence herbicidal evaluation; type: in vivo, Triticum aestivum; details: for TRZAWR herbicidal rating: postemergence
How it was run: as §4

[5] = tested on: IPOHE (Morningglory, Ivyleaf); experiment: Preemergence herbicidal evaluation; type: in vivo, Ipomoea hederacea; details: rated 4-5 weeks after treatment
How it was run: as §3

GALAP (Galium) = experiment: Postemergence herbicidal evaluation; type: in vivo, Galium aparine; details: for GALAP herbicidal rating: postemergence
How it was run: as §4

ABUTH (Velvetleaf) = experiment: Preemergence herbicidal evaluation; type: in vivo, Abutilon theophrasti; details: rated 4-5 weeks after treatment
How it was run: as §3

SETVI (Foxtail, Green) [6] = experiment: Postemergence herbicidal evaluation; type: in vivo, Setaria viridis; details: for SETVI herbicidal rating: postemergence
How it was run: as §4

ECHCG (Barnyardgrass) = experiment: Preemergence herbicidal evaluation; type: in vivo, Echinochloa crus-galli; details: rated 4-5 weeks after treatment
How it was run: as §3

[7] = tested on: ECHORC (Watergrass (Calif.)); experiment: Preemergence weed control under flooded paddy conditions; type: in vivo, Echinochloa oryzoides; details: rated 3-4 weeks after treatment
How it was run: as §2

SETVI (Foxtail, Green) [8] = experiment: Preemergence herbicidal evaluation; type: in vivo, Setaria viridis; details: rated 4-5 weeks after treatment
How it was run: as §3

[9] = rate 0.0313 kg/ha, 3-4 weeks after treatment
[10] = rate 0.0625 kg/ha, 3-4 weeks after treatment
[11] = rate 0.1250 kg/ha, 3-4 weeks after treatment
[12] = rate 0.2500 kg/ha, 3-4 weeks after treatment
[13] = Rate 0.0313 kg/ha, rated 3 to 4 weeks after treatment
[14] = Rate 0.0625 kg/ha, rated 3 to 4 weeks after treatment
[15] = Rate 0.1250 kg/ha, rated 3 to 4 weeks after treatment
[16] = Rate 0.2500 kg/ha, rated 3 to 4 weeks after treatment

CCOC(=O)CN1CC(=O)N(CC(=O)OCC)C1=Nc1cc(-n2c(=O)cc(C(F)(F)F)n(C)c2=O)c(F)cc1Cl [Compound 34, 2-{{2-Chloro-5-[3,6-dihydro-3-methyl-2,6-dioxo-4-(trifluoromethyl)-1(2H)-pyrimidinyl]-4-fluoro-phenyl}imino}-4-oxo-1,3-imidazolidinediacetic acid, diethyl ester]
Herbicidal rating SAGPY [1, 9]: 0.0 | Herbicidal rating SAGPY [1, 10]: 0.0 | Herbicidal rating SAGPY [1, 11]: 0.0 | Herbicidal rating SAGPY [1, 12]: 0.0 | Herbicidal rating CYPIR (CYPIR (Rice Flatsedge); 0.0313 kg/ha): 0.0 | Herbicidal rating CYPIR (CYPIR (Rice Flatsedge); 0.0625 kg/ha): 0.0 | Herbicidal rating CYPIR (CYPIR (Rice Flatsedge); 0.1250 kg/ha): 0.0 | Herbicidal rating CYPIR (CYPIR (Rice Flatsedge); 0.2500 kg/ha): 0.0 | Preemergence herbicidal rating ZEAMX (ZEAMX (Corn, Field); rate 0.0313 kg/ha): 0.0 | Preemergence herbicidal rating ZEAMX (ZEAMX (Corn, Field); rate 0.0625 kg/ha): 3.0 | Preemergence herbicidal rating ZEAMX (ZEAMX (Corn, Field); rate 0.1250 kg/ha): 7.0 | Preemergence herbicidal rating ZEAMX (ZEAMX (Corn, Field); rate 0.2500 kg/ha): 9.0 | Herbicidal rating ECHORC [2, 9]: 3.0 | Herbicidal rating ECHORC [2, 10]: 4.0 | Herbicidal rating ECHORC [2, 11]: 4.0 | Herbicidal rating ECHORC [2, 12]: 9.0 | Postemergence herbicidal rating IPOHE ([3]; Rate 0.0158 kg/ha): 9.0 | Postemergence herbicidal rating IPOHE ([3]; Rate 0.0315 kg/ha): 9.0 | Postemergence herbicidal rating IPOHE ([3]; Rate 0.0630 kg/ha): 9.0 | Postemergence herbicidal rating TRZAWR ([4]; Rate 0.0158 kg/ha): 4.0 | Postemergence herbicidal rating TRZAWR ([4]; Rate 0.0315 kg/ha): 4.0 | Postemergence herbicidal rating TRZAWR ([4]; Rate 0.0630 kg/ha): 5.0 | Preemergence herbicidal rating IPOHE ([5]; rate 0.0313 kg/ha): 0.0 | Preemergence herbicidal rating IPOHE ([5]; rate 0.0625 kg/ha): 3.0 | Preemergence herbicidal rating IPOHE ([5]; rate 0.1250 kg/ha): 3.0 | Preemergence herbicidal rating IPOHE ([5]; rate 0.2500 kg/ha): 9.0 | Postemergence herbicidal rating GALAP (GALAP (Galium); Rate 0.0158 kg/ha): 4.0 | Postemergence herbicidal rating GALAP (GALAP (Galium); Rate 0.0315 kg/ha): 9.0 | Postemergence herbicidal rating GALAP (GALAP (Galium); Rate 0.0630 kg/ha): 6.0 | Preemergence herbicidal rating ABUTH (ABUTH (Velvetleaf); rate 0.0313 kg/ha): 9.0 | Preemergence herbicidal rating ABUTH (ABUTH (Velvetleaf); rate 0.0625 kg/ha): 9.0 | Preemergence herbicidal rating ABUTH (ABUTH (Velvetleaf); rate 0.1250 kg/ha): 9.0 | Preemergence herbicidal rating ABUTH (ABUTH (Velvetleaf); rate 0.2500 kg/ha): 9.0 | Postemergence herbicidal rating SETVI (SETVI (Foxtail, Green) [6]; Rate 0.0158 kg/ha): 0.0 | Postemergence herbicidal rating SETVI (SETVI (Foxtail, Green) [6]; Rate 0.0315 kg/ha): 4.0 | Postemergence herbicidal rating SETVI (SETVI (Foxtail, Green) [6]; Rate 0.0630 kg/ha): 9.0 | Preemergence herbicidal rating ECHCG (ECHCG (Barnyardgrass); rate 0.0313 kg/ha): 0.0 | Preemergence herbicidal rating ECHCG (ECHCG (Barnyardgrass); rate 0.0625 kg/ha): 0.0 | Preemergence herbicidal rating ECHCG (ECHCG (Barnyardgrass); rate 0.1250 kg/ha): 2.0 | Preemergence herbicidal rating ECHCG (ECHCG (Barnyardgrass); rate 0.2500 kg/ha): 5.0 | Herbicidal rating ECHORC ([7]; 0.0313 kg/ha): 3.0 | Herbicidal rating ECHORC ([7]; 0.0625 kg/ha): 4.0 | Herbicidal rating ECHORC ([7]; 0.1250 kg/ha): 4.0 | Herbicidal rating ECHORC ([7]; 0.2500 kg/ha): 9.0 | Preemergence herbicidal rating SETVI (SETVI (Foxtail, Green) [8]; rate 0.0313 kg/ha): 3.0 | Preemergence herbicidal rating SETVI (SETVI (Foxtail, Green) [8]; rate 0.0625 kg/ha): 9.0 | Preemergence herbicidal rating SETVI (SETVI (Foxtail, Green) [8]; rate 0.1250 kg/ha): 9.0 | Preemergence herbicidal rating SETVI (SETVI (Foxtail, Green) [8]; rate 0.2500 kg/ha): 9.0

COC(=O)[C@@H](Cc1ccccc1)N1C(=O)CSC1=Nc1cc(-n2c(=O)cc(C(F)(F)F)n(C)c2=O)c(F)cc1Cl [Compound 74, Methyl α-benzyl-2-{{2-chloro-5-[3,6-dihydro-3-methyl-2,6-dioxo-4-(trifluoromethyl)-1(2H)-pyrimidinyl]-4-fluorophenyl}imino}-4-oxo-3-thiazolidineacetate, D-]
Herbicidal rating SAGPY [1, 13]: 3.0 | Herbicidal rating SAGPY [1, 14]: 3.0 | Herbicidal rating SAGPY [1, 15]: 3.0 | Herbicidal rating SAGPY [1, 16]: 9.0 | CYPIR herbicidal effect rating (CYPIR (Rice Flatsedge); 0.0313 kg/ha): 0.0 | CYPIR herbicidal effect rating (CYPIR (Rice Flatsedge); 0.0625 kg/ha): 0.0 | CYPIR herbicidal effect rating (CYPIR (Rice Flatsedge); 0.1250 kg/ha): 0.0 | CYPIR herbicidal effect rating (CYPIR (Rice Flatsedge); 0.2500 kg/ha): 0.0 | Preemergence herbicidal rating ZEAMX (ZEAMX (Corn, Field); rate 0.0156 kg/ha): 0.0 | Preemergence herbicidal rating ZEAMX (ZEAMX (Corn, Field); rate 0.0313 kg/ha): 0.0 | Preemergence herbicidal rating ZEAMX (ZEAMX (Corn, Field); rate 0.0625 kg/ha): 0.0 | Preemergence herbicidal rating ZEAMX (ZEAMX (Corn, Field); rate 0.1250 kg/ha): 1.0 | Preemergence herbicidal rating ZEAMX (ZEAMX (Corn, Field); rate 0.2500 kg/ha): 1.0 | Herbicidal rating ECHORC [2, 13]: 7.0 | Herbicidal rating ECHORC [2, 14]: 9.0 | Herbicidal rating ECHORC [2, 15]: 9.0 | Herbicidal rating ECHORC [2, 16]: 9.0 | IPOHE herbicidal rating ([3]; rate 0.0158 kg/ha): 9.0 | IPOHE herbicidal rating ([3]; rate 0.0315 kg/ha): 9.0 | IPOHE herbicidal rating ([3]; rate 0.0630 kg/ha): 9.0 | TRZAWR herbicidal rating ([4]; rate 0.0158 kg/ha): 3.5 | TRZAWR herbicidal rating ([4]; rate 0.0315 kg/ha): 4.5 | TRZAWR herbicidal rating ([4]; rate 0.0630 kg/ha): 6.0 | Preemergence herbicidal rating IPOHE ([5]; rate 0.0156 kg/ha): 0.0 | Preemergence herbicidal rating IPOHE ([5]; rate 0.0625 kg/ha): 1.0 | Preemergence herbicidal rating IPOHE ([5]; rate 0.1250 kg/ha): 0.0 | Preemergence herbicidal rating IPOHE ([5]; rate 0.2500 kg/ha): 1.0 | GALAP herbicidal rating (GALAP (Galium); rate 0.0158 kg/ha): 1.0 | GALAP herbicidal rating (GALAP (Galium); rate 0.0315 kg/ha): 4.0 | GALAP herbicidal rating (GALAP (Galium); rate 0.0630 kg/ha): 9.0 | Preemergence herbicidal rating ABUTH (ABUTH (Velvetleaf); rate 0.0156 kg/ha): 0.0 | Preemergence herbicidal rating ABUTH (ABUTH (Velvetleaf); rate 0.0313 kg/ha): 4.0 | Preemergence herbicidal rating ABUTH (ABUTH (Velvetleaf); rate 0.0625 kg/ha): 9.0 | Preemergence herbicidal rating ABUTH (ABUTH (Velvetleaf); rate 0.1250 kg/ha): 9.0 | Preemergence herbicidal rating ABUTH (ABUTH (Velvetleaf); rate 0.2500 kg/ha): 9.0 | SETVI herbicidal rating (SETVI (Foxtail, Green) [6]; rate 0.0158 kg/ha): 1.0 | SETVI herbicidal rating (SETVI (Foxtail, Green) [6]; rate 0.0315 kg/ha): 1.0 | SETVI herbicidal rating (SETVI (Foxtail, Green) [6]; rate 0.0630 kg/ha): 2.0 | Preemergence herbicidal rating ECHCG (ECHCG (Barnyardgrass); rate 0.0156 kg/ha): 0.0 | Preemergence herbicidal rating ECHCG (ECHCG (Barnyardgrass); rate 0.0313 kg/ha): 0.0 | Preemergence herbicidal rating ECHCG (ECHCG (Barnyardgrass); rate 0.0625 kg/ha): 1.0 | Preemergence herbicidal rating ECHCG (ECHCG (Barnyardgrass); rate 0.1250 kg/ha): 0.0 | Preemergence herbicidal rating ECHCG (ECHCG (Barnyardgrass); rate 0.2500 kg/ha): 1.0 | ECHORC herbicidal effect rating ([7]; 0.0313 kg/ha): 7.0 | ECHORC herbicidal effect rating ([7]; 0.0625 kg/ha): 9.0 | ECHORC herbicidal effect rating ([7]; 0.1250 kg/ha): 9.0 | ECHORC herbicidal effect rating ([7]; 0.2500 kg/ha): 9.0 | Preemergence herbicidal rating SETVI (SETVI (Foxtail, Green) [8]; rate 0.0156 kg/ha): 0.0 | Preemergence herbicidal rating SETVI (SETVI (Foxtail, Green) [8]; rate 0.0313 kg/ha): 0.0 | Preemergence herbicidal rating SETVI (SETVI (Foxtail, Green) [8]; rate 0.0625 kg/ha): 1.0 | Preemergence herbicidal rating SETVI (SETVI (Foxtail, Green) [8]; rate 0.1250 kg/ha): 4.0 | Preemergence herbicidal rating SETVI (SETVI (Foxtail, Green) [8]; rate 0.2500 kg/ha): 9.0
